Measurements reported in ChEMBL document CHEMBL3885881, “DrugMatrix”.

Organism: Rattus norvegicus
Experiment: DrugMatrix - Regimen: Daily Repeat
Assay type: toxicity, organism-based, Sprague-Dawley
Parameters: regimen Daily Repeat, gender Male, age 6-8 weeks
Details: in vivo, po, route oral GAVAGE, […]; for ABSOLUTE BASOPHIL / ABSOLUTE EOSINOPHIL / ABSOLUTE LYMPHOCYTE / ABSOLUTE MONOCYTE / ABSOLUTE SEGMENTED NEUTROPHIL / BASOPHIL / EOSINOPHIL / ERYTHROCYTE COUNT / HEMATOCRIT / HEMOGLOBIN / LEUKOCYTE COUNT / LYMPHOCYTE / MEAN CORPUSCULAR HEMOGLOBIN / MEAN CORPUSCULAR HEMOGLOBIN CONCENTRATION / MEAN CORPUSCULAR VOLUME / MONOCYTE / NEUTROPHIL / NUCLEATED RED BLOOD CELLS / PLATELET COUNT: tissue Blood; for ALANINE AMINOTRANSFERASE / ALBUMIN / ALKALINE PHOSPHATASE / ASPARTATE AMINOTRANSFERASE / BLOOD UREA NITROGEN / CARBON DIOXIDE / CHLORIDE / CHOLESTEROL / CREATINE PHOSPHOKINASE / CREATININE / GLUCOSE / LACTATE DEHYDROGENASE / LIPASE / PHOSPHORUS / POTASSIUM / SODIUM / TOTAL BILIRUBIN / TOTAL PROTEIN / URIC ACID: tissue Plasma
[1] = 0 mg/kg, 72 h, dose level Control, time 3 day
[2] = 0 mg/kg, 120 h, dose level Control, time 5 day
[3] = 30 mg/kg, 72 h, dose level Low, time 3 day

## Cc1oncc1C(=O)Nc1ccc(C(F)(F)F)cc1 [LEFLUNOMIDE]
[1]
  ABSOLUTE BASOPHIL: 0 CELLS/uL
  ABSOLUTE EOSINOPHIL: 52.33 CELLS/uL
  ABSOLUTE LYMPHOCYTE: 9105.33 CELLS/uL
  ABSOLUTE MONOCYTE: 155.67 CELLS/uL
  ABSOLUTE SEGMENTED NEUTROPHIL: 1020 CELLS/uL
  BASOPHIL: 0%
  EOSINOPHIL: 0.33%
  ERYTHROCYTE COUNT: 5.03 x10E6/uL
  HEMATOCRIT: 31.63%
  HEMOGLOBIN: 12.37 G/DL
  LEUKOCYTE COUNT: 10.33 x10E3/uL
  LYMPHOCYTE: 87%
  MEAN CORPUSCULAR HEMOGLOBIN: 24.57 pg
  MEAN CORPUSCULAR HEMOGLOBIN CONCENTRATION: 39.07 G/DL
  MEAN CORPUSCULAR VOLUME: 62.93 fL
  MONOCYTE: 1.33%
  NEUTROPHIL: 11.33%
  NUCLEATED RED BLOOD CELLS: 0 /100WBC
  PLATELET COUNT: 896 x10E3/uL
  ALANINE AMINOTRANSFERASE: 75.33 u/L
  ALBUMIN: 3.77 G/DL
  ALKALINE PHOSPHATASE: 378.67 u/L
  ASPARTATE AMINOTRANSFERASE: 101.33 u/L
  BLOOD UREA NITROGEN: 11.33 mg/dL
  CARBON DIOXIDE: 25 mmol/L
  CHLORIDE: 99 MEQ/L
  CHOLESTEROL: 66 mg/dL
  CREATINE PHOSPHOKINASE: 277 u/L
  CREATININE: 0.33 mg/dL
  GLUCOSE: 198.33 mg/dL
  LACTATE DEHYDROGENASE: 140.33 u/L
  LIPASE: 11.33 u/L
  PHOSPHORUS: 11.83 mg/dL
  POTASSIUM: 5.37 MEQ/L
  SODIUM: 141.03 MEQ/L
  TOTAL BILIRUBIN: 0.2 mg/dL
  TOTAL PROTEIN: 5.47 G/DL
  URIC ACID: 0.93 mg/dL
[2]
  ABSOLUTE BASOPHIL: 0 CELLS/uL
  ABSOLUTE EOSINOPHIL: 0 CELLS/uL
  ABSOLUTE LYMPHOCYTE: 8734 CELLS/uL
  ABSOLUTE MONOCYTE: 98.67 CELLS/uL
  ABSOLUTE SEGMENTED NEUTROPHIL: 1034 CELLS/uL
  BASOPHIL: 0%
  EOSINOPHIL: 0%
  ERYTHROCYTE COUNT: 5.19 x10E6/uL
  HEMATOCRIT: 33.2%
  HEMOGLOBIN: 12.93 G/DL
  LEUKOCYTE COUNT: 9.87 x10E3/uL
  LYMPHOCYTE: 87%
  MEAN CORPUSCULAR HEMOGLOBIN: 25 pg
  MEAN CORPUSCULAR HEMOGLOBIN CONCENTRATION: 39.03 G/DL
  MEAN CORPUSCULAR VOLUME: 63.93 fL
  MONOCYTE: 1%
  NEUTROPHIL: 12%
  NUCLEATED RED BLOOD CELLS: 0 /100WBC
  PLATELET COUNT: 1190 x10E3/uL
  ALANINE AMINOTRANSFERASE: 75.67 u/L
  ALBUMIN: 4 G/DL
  ALKALINE PHOSPHATASE: 384.33 u/L
  ASPARTATE AMINOTRANSFERASE: 89.67 u/L
  BLOOD UREA NITROGEN: 13 mg/dL
  CARBON DIOXIDE: 32.67 mmol/L
  CHLORIDE: 103 MEQ/L
  CHOLESTEROL: 79.67 mg/dL
  CREATINE PHOSPHOKINASE: 199.33 u/L
  CREATININE: 0.29 mg/dL
  GLUCOSE: 161.33 mg/dL
  LACTATE DEHYDROGENASE: 92.33 u/L
  LIPASE: 11.67 u/L
  PHOSPHORUS: 10.8 mg/dL
  POTASSIUM: 5.38 MEQ/L
  SODIUM: 145.3 MEQ/L
  TOTAL BILIRUBIN: 0.17 mg/dL
  TOTAL PROTEIN: 5.7 G/DL
  URIC ACID: 0.63 mg/dL
[3]
  ABSOLUTE BASOPHIL: 0 CELLS/uL
  ABSOLUTE EOSINOPHIL: 0 CELLS/uL
  ABSOLUTE LYMPHOCYTE: 5968 CELLS/uL
  ABSOLUTE MONOCYTE: 69 CELLS/uL
  ABSOLUTE SEGMENTED NEUTROPHIL: 863 CELLS/uL
  BASOPHIL: 0%
  EOSINOPHIL: 0%
  ERYTHROCYTE COUNT: 5.11 x10E6/uL
  HEMATOCRIT: 32.33%
  HEMOGLOBIN: 12.8 G/DL
  LEUKOCYTE COUNT: 6.9 x10E3/uL
  LYMPHOCYTE: 87%
  MEAN CORPUSCULAR HEMOGLOBIN: 25.03 pg
  MEAN CORPUSCULAR HEMOGLOBIN CONCENTRATION: 39.63 G/DL
  MEAN CORPUSCULAR VOLUME: 63.2 fL
  MONOCYTE: 1%
  NEUTROPHIL: 12%
  NUCLEATED RED BLOOD CELLS: 0 /100WBC
  PLATELET COUNT: 794.67 x10E3/uL
  ALANINE AMINOTRANSFERASE: 46.33 u/L
  ALBUMIN: 3.67 G/DL
  ALKALINE PHOSPHATASE: 251.33 u/L
  ASPARTATE AMINOTRANSFERASE: 75.67 u/L
  BLOOD UREA NITROGEN: 8 mg/dL
  CARBON DIOXIDE: 29.67 mmol/L
  CHLORIDE: 101.33 MEQ/L
  CHOLESTEROL: 98.67 mg/dL
  CREATINE PHOSPHOKINASE: 199.67 u/L
  CREATININE: 0.1 mg/dL
  GLUCOSE: 181.33 mg/dL
  LACTATE DEHYDROGENASE: 70 u/L
  LIPASE: 10.67 u/L
  PHOSPHORUS: 9.87 mg/dL
  POTASSIUM: 4.69 MEQ/L
  SODIUM: 144.17 MEQ/L
  TOTAL BILIRUBIN: 0.13 mg/dL
  TOTAL PROTEIN: 5.17 G/DL
  URIC ACID: 0.53 mg/dL
